Values of other authors as cited in US20160220687A1, “METALLOPROTEINASE-CLEAVABLE ALPHA-AMANITIN-DENDRIMER CONJUGATES AND METHOD OF TREATING CANCER” (priority 2015, published 2016).

What was measured:
advanced gastric cancer = conditions: patients with advanced gastric cancer, compared to placebo
liver and kidney = conditions: intravenous or intraperitoneal administration
B16F10 melanoma cells = conditions: mice injected with B16F10 melanoma cells

N#Cc1ccc(C(c2ccc(C#N)cc2)n2cncn2)cc1 [Letrozole]
MMP2 and MMP9 levels (MCF7 breast cancer cells): efficient reduction

CNC(=O)[C@@H](NC(=O)[C@H](CC(C)C)[C@H](O)C(=O)NO)C(C)(C)C [Marimastat]
disease free survival (advanced gastric cancer): significant improvement | overall survival (advanced gastric cancer): significant improvement

CC[C@H](C)[C@@H]1NC(=O)CNC(=O)[C@@H]2Cc3c([nH]c4cc(O)ccc34)[S@+]([O-])C[C@H](NC(=O)CNC1=O)C(=O)N[C@@H](CC(N)=O)C(=O)N1C[C@H](O)C[C@H]1C(=O)N[C@@H]([C@@H](C)[C@@H](O)CO)C(=O)N2 [alpha-amanitin]
pathological effects on the liver and kidney (liver and kidney): serious pathological effects on the liver and kidney

TIMP1: an inhibitor of MMP9
number of pulmonary metastases (B16F10 melanoma cells): reduced
